Experimental data as given in patent US20220162221A1, “Imaging Agents” (UCB Biopharma SRL, priority 2017, published 2022).

Experiments:
tachykinin NK1 receptors = target: T1, tachykinin NK1 receptors (Homo sapiens, UniProt P25103); assay: NK1 binding, CEREP panel; settings: n=1 in duplicate
T1 construct: purchased CEREP, contract assay
Experimental: (§1) Compound selectivity for human D1R was assessed at 10 μM at CEREP against a panel of 80 targets (n=1 with data in duplicate) including receptors, transporters, enzymes and ion channels. Potentially relevant affinity was identified for only 3 targets: dopamine D5 receptor (D5R), tachykinin NK1 receptors and adenosine transporter (ADET) with >60% inhibition at 10 μM of compound (±)-(I). Affinity (pKi) of compound of formula (±)-I for human DSR, NK1 receptor and ADET were then measured.

[1] = test system: panel of 80 targets including receptors, transporters, enzymes and ion channels; assay: Selectivity panel of 80 targets (CEREP); assay type: binding
Experimental: (§2) To assess compound (I) affinity and selectivity for D1, it has been tested in competitive radioligand binding assays. Competitive radioligand binding assays were then used to measure (±)-I affinity for D1 receptor and assess its selectivity regarding a large panel of 80 related and unrelated targets.
as §1

[2] = test system: adenosine transporter (ADET); assay: Adenosine transporter binding, CEREP panel; parameters: species or system human; settings: at 10 μM, n=1 in duplicate
Experimental: as §1

human D1R = human D1R (Homo sapiens, UniProt P21728); assay: [3H]SCH23390 radioligand competitive binding (CEREP); parameters: purchased CEREP (Celle l'Evescault, France), contract assay
Chain of human D1R (P21728 whole entry): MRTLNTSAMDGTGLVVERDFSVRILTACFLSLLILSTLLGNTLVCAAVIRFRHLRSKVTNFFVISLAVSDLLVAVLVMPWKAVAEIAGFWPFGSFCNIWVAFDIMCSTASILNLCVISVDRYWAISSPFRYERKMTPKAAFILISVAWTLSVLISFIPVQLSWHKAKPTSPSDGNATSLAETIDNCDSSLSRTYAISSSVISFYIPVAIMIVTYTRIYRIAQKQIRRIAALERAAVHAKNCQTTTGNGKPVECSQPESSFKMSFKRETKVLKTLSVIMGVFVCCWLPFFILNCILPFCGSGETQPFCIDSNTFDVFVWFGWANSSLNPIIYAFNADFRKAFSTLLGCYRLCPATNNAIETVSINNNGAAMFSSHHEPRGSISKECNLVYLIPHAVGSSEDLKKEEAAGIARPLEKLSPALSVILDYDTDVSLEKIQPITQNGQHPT
Experimental: as §2
Affinity (pKi) of Compound of formula (±)-(I) for recombinant human D1R was measured at CEREP (Celle l'Evescault, France) by [^3]SCH23390 radioligand competitive binding experiments.

hD1R in SK-N-MC cells = hD1R in SK-N-MC cells (Homo sapiens, UniProt P21728); assay: cAMP HTRF D1 functional assay; settings: cAMP HTRF
Chain of hD1R in SK-N-MC cells (P21728 whole entry): as above
Experimental: The reaction was terminated by consecutive additions of 10 μL d2 detection reagent and the cryptate reagent both diluted in lysis buffer. After a period of 60 min at room temperature, changes in HTRF emission ratio were determined and transformed in [cAMP]i using a standard curve.

[3] = target: T2, dopamine D5 receptor (D5R) (Homo sapiens, UniProt P21918); assay: D5R binding, CEREP panel and pKi follow-up
T2 construct: purchased CEREP, contract assay
T2 sequence (P21918 whole entry): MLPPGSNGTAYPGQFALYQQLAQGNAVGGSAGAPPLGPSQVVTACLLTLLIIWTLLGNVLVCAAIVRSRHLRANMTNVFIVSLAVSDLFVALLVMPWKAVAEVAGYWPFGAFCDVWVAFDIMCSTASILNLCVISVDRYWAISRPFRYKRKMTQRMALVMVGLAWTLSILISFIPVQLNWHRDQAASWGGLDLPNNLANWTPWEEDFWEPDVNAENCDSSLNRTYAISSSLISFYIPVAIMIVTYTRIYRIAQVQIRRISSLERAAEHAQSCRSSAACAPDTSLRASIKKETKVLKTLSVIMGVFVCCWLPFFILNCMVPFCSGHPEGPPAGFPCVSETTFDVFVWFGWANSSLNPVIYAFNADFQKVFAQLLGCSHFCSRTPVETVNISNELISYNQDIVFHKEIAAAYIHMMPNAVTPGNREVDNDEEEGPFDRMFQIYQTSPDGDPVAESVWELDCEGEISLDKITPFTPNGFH
Experimental: as §1

[4] = competitive radioligand binding

T1 sequence (P25103 whole entry): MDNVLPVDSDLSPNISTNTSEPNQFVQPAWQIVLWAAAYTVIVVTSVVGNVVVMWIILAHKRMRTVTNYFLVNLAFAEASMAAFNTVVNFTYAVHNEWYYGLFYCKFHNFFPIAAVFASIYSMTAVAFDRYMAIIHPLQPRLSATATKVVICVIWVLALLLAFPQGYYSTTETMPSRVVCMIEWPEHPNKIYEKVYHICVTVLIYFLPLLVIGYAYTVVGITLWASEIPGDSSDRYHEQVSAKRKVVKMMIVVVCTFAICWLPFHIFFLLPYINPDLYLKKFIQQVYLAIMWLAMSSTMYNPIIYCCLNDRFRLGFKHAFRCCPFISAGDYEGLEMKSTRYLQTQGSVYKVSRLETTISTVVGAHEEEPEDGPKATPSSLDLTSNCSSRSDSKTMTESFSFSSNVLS

- inhibition at 10 µM (tachykinin NK1 receptors): > 60%
- selectivity with respect to the other 79 tested targets ([1]; D1-like vs other targets): more than 1000 fold
- pKi for the other 79 tested targets ([1]; all targets other than D1R, D5R excepted by text): ≤ 6.0
- binding to the other tested targets ([1]; panel of 80 targets): do not significantly bind
- inhibition, adenosine transporter (ADET) [2]: > 60%
- Ki (human D1R; [3H]SCH23390 competition, read-out: pKi for human D1R (converted)): 0.631 nM
- affinity for D1 receptor (human D1R; [4]): subnanomolar range
- agonist-like effect on D1 receptor (hD1R in SK-N-MC cells): significant direct agonist-like effect
- Ki [3]: 0.398 nM
- inhibition at 10 µM ([3]; at 10 μM, n=1 in duplicate): > 60%
- affinity for D5 receptor [3, 4]: subnanomolar range
Structure (SMILES): Cc1c(-c2ccc(Oc3nccc4occc34)cc2CF)n(C)c(=O)[nH]c1=O (racemic) [Compound (±)-(I), 6-[2-(fluoromethyl)-4-(furo[3,2-c]pyridin-4-yloxy)phenyl]-1,5-dimethylpyrimidine-2,4(1H,3H)-dione]
